For 16 molecules, CDK5/CDK2 specificity and IC50 results are on record in US20220389009A1, “SUBSTITUTED 1,6-NAPHTHYRIDINE INHIBITORS OF CDK5” (Goldfinch Bio, Inc., priority 2019, published 2022).

For one assay, the target named is CDK5/p25 (Homo sapiens, UniProt Q00535). The assay is described as follows: CDK5 mobility shift assay (enzymatic activity of CDK5/p25). The note with it: for IC50: 0.154 nM CDK5/p25, FL peptide 29, 60 min at room temperature, read-out: CDK5 IC50. The class given is biochemical. Here is the method:
(§1) Compound potency was measured via a change in the enzymatic activity of CDK5/p25, and optionally of CDK2/CycA2. Enzymes, CDK5/p25 and CDK2/CycA2, were sourced from Carna Biosciences (Cat #04-106 and 04-103, respectively). Test compound stocks were diluted in 100% DMSO and serially diluted 3-fold in a 384-well plate using a TECAN EVO200 (TECAN). Staurosporine was used as a reference control compound in all assays.
(§2) Twenty nL of compound were transferred into a 384-well plate (Greiner 781201) using an Echo550 (Labcyte Inc). Enzyme, ATP, and 10 mM MgCl2 were preincubated at room temperature with the compound in assay buffer (50 mM HEPES pH 7.5, 1 mM EGTA, 0.01% Brij-35, 0.05% BSA, 2 mM DTT) for 30 minutes. Peptide substrate (FL peptide 29 (Perkin Elmer) for CDK5/p25; FL Peptide 18 (Perkin Elmer) for CDK2/CycA2) was added to initiate the reaction. The final assay contained 0.154 nM CDK5/p25 or 1.25 nM CDK2/CycA2, […] (for CDK5/p25) or 37 μM (for CDK2/CycA2) ATP, and 1.5 μM of the appropriate peptide substrate. The final DMSO concentration was <1%.
(§3) The CDK5/p25 reaction was incubated at room temperature for 60 min. The CDK2/CycA2 reaction was incubated at room temperature for 120 min. The reactions were quenched by the addition of 70 μL stopping buffer containing 0.5 M EDTA. Samples were analyzed using the EZ Reader (Perkin Elmer).
(§4) The results were expressed as % vehicle, where % vehicle=100×(U−C2)/(C1−C2), where U is the signal of sample, C1 is the average of the high controls (signal with no compound added), and C2 is the average of low controls (signal with the buffer in place of enzyme). The ICso is determined by fitting the percentage of inhibition as a function of compound concentrations using a 4-parameter fit defined as follows.
(§5) Y=Bottom+(Top−Bottom)/(1+10^((LobIC50-X)*Hill Slope)), where X is the log of the compound concentration, Y is the % vehicle or response at X, Top and Bottom are the plateaus in the same units as Y, and the Hill's Slope is unitless, and the ICso is the half-maximal inhibitory concentration.

The target in the next assay is CDK2/CycA2 (Homo sapiens, UniProt P24941). As to the kind of experiment: CDK2 mobility shift assay (enzymatic activity of CDK2/CycA2). The class given is biochemical. The note with it: 1.25 nM CDK2/CycA2, 37 μM ATP, FL Peptide 18, 120 min at room temperature; read-out: CDK2 IC50. Here is the method:
as §1, §2, §3, §4, §5

Where [1] appears, read: fold more active against CDK5 than CDK2.

Like-named read-outs stand apart in the source and are kept apart here. Where only a bound is given, the exact number is not on record here.

Sequence of CDK5/p25 (Q00535 whole entry): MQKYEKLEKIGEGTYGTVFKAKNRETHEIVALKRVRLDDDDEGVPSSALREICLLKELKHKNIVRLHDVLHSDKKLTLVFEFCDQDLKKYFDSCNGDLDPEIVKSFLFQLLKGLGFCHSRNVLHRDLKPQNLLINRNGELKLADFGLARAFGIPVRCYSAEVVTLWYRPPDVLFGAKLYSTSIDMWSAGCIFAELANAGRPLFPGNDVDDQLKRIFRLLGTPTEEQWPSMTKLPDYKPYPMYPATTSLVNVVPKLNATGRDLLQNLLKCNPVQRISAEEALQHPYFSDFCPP
Sequence of CDK5/p25 (Q15078 99-307 partner limits assumed): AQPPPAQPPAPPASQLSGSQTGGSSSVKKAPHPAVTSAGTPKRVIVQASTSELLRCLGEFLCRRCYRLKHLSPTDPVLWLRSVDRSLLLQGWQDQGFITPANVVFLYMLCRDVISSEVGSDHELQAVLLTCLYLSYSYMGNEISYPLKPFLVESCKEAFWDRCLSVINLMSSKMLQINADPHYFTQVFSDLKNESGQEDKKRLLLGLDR

As to “3-fluoro-4-([2-[(1R)-1-hydroxy-1-(1-methylpiperidin-4-yl)ethyl]-1,6-naphthyridin-7-yl]amino)-[1,1-biphenyl]-3-carboxylic acid [Compound 360]”, on CDK5/p25, the CDK5/CDK2 specificity entry is “++ (greater than 10-fold and less than or equal to 100-fold more active against CDK5 than CDK2)”; the IC50 was < 0.01 µM. For the same molecule, on CDK2/CycA2, the IC50 is 0.01 to 0.1 µM.
For the molecule `CC(c1ccc2cnc(Nc3ccc(-c4noc(=O)[nH]4)cc3F)cc2n1)C1CCN(C)CC1` (racemic) [Compound 368], the IC50 on CDK5/p25 is < 0.01 µM; at CDK2/CycA2, 0.1 to 1 µM. Besides, the CDK5/CDK2 specificity entry at CDK5/p25 (setting [1]) is “++ (greater than 10-fold and less than or equal to 100-fold more active against CDK5 than CDK2)”.
For `O=C(O)[C@@H]1CNCC[C@@H]1Nc1ccc2cnc(Nc3ccc(-n4ccc(CO)n4)cc3F)cc2n1` (relative stereo) [Compound 131, cis-4-[[7-([2-fluoro-4-[3-(hydroxymethyl)pyrazol-1-yl]phenyl]amino)-1,6-naphthyridin-2-yl]amino]piperidine-3-carboxylic acid], the IC50 on CDK5/p25 was 0.1 to 1 µM; at CDK2/CycA2, > 1 µM. Also, the CDK5/CDK2 specificity entry at CDK5/p25 (setting [1]) is “++ (greater than 10-fold and less than or equal to 100-fold more active against CDK5 than CDK2)”.
Take `CN1CCC(C(O)c2ccc3cnc(Nc4ccc(-n5cccn5)cc4F)cc3n2)CC1` (single isomer, unassigned) [Compound 175, (7-[[2-fluoro-4-(pyrazol-1-yl)phenyl]amino]-1,6-naphthyridin-2-yl) (1-methylpiperidin-4-yl)methanol]: the IC50 at CDK5/p25 is < 0.01 µM; on CDK2/CycA2, 0.1 to 1 µM. On CDK5/p25 (setting [1]), the CDK5/CDK2 specificity entry is “+++ (greater than 100-fold more active against CDK5 than CDK2)”.
As to `CN1CCC(C(O)c2ccc3cnc(Nc4ccc(-n5cccn5)cc4F)cc3n2)CC1` (single isomer, unassigned) [Compound 176, (7-[[2-fluoro-4-(pyrazol-1-yl)phenyl]amino]-1,6-naphthyridin-2-yl) (1-methylpiperidin-4-yl)methanol], the half-maximal inhibitory concentration (IC50) on CDK5/p25 and on CDK2/CycA2 was 0.1 to 1 µM each time. Also, the CDK5/CDK2 specificity result at CDK5/p25 (setting [1]) is “+ (10-fold or less more active against CDK5 than CDK2)”.
As to `CC(c1ccc2cnc(Nc3ccc(-n4ccc(CO)n4)cc3F)cc2n1)C1CCN(C)CC1` (single isomer, unassigned) [Compound 186, [1-[3-fluoro-4-([2-[1-(1-methylpiperidin-4-yl)ethyl]-1,6-naphthyridin-7-yl]amino)phenyl]pyrazol-3-yl]methanol], the results for the IC50 at CDK5/p25 and at CDK2/CycA2 were 0.01 to 0.1 µM and > 1 µM, respectively. Also, the CDK5/CDK2 specificity result at CDK5/p25 (setting [1]) was “++ (greater than 10-fold and less than or equal to 100-fold more active against CDK5 than CDK2)”.
As for `CC(c1ccc2cnc(Nc3ccc(-n4ccc(CO)n4)cc3F)cc2n1)C1CCN(C)CC1` (single isomer, unassigned) [Compound 188, [1-[3-fluoro-4-([2-[1-(1-methylpiperidin-4-yl)ethyl]-1,6-naphthyridin-7-yl]amino)phenyl]pyrazol-3-yl]methanol], the IC50 at CDK5/p25 was < 0.01 µM; at CDK2/CycA2, 0.1 to 1 µM. For the same molecule, the CDK5/CDK2 specificity result at CDK5/p25 (setting [1]) is reported as “+++ (greater than 100-fold more active against CDK5 than CDK2)”.
As for `CN1CCC(C(C)(O)c2ccc3cnc(Nc4ccc(-n5cccn5)cc4F)cc3n2)CC1` (single isomer, unassigned) [Compound 205, 1-(7-[[2-fluoro-4-(pyrazol-1-yl)phenyl]amino]-1,6-naphthyridin-2-yl)-1-(1-methylpiperidin-4-yl)ethanol], the values for the IC50 on CDK5/p25 and on CDK2/CycA2 were 0.1 to 1 µM and > 1 µM, respectively. For the same molecule, at CDK5/p25 (setting [1]), the CDK5/CDK2 specificity entry is “++ (greater than 10-fold and less than or equal to 100-fold more active against CDK5 than CDK2)”.
As to `CN1CCC(C(C)(O)c2ccc3cnc(Nc4ccc(-n5cccn5)cc4F)cc3n2)CC1` (single isomer, unassigned) [Compound 216, 1-(7-[[2-fluoro-4-(pyrazol-1-yl)phenyl]amino]-1,6-naphthyridin-2-yl)-1-(1-methylpiperidin-4-yl)ethanol], the IC50 was < 0.01 µM on CDK5/p25 and 0.01 to 0.1 µM at CDK2/CycA2. In addition, the CDK5/CDK2 specificity result on CDK5/p25 (setting [1]) was “++ (greater than 10-fold and less than or equal to 100-fold more active against CDK5 than CDK2)”.
Take `CN1CCC(C(O)c2ccc3cnc(Nc4ccc(-n5ccc(CO)n5)cc4F)cc3n2)CC1` (single isomer, unassigned) [Compound 247, [7-([2-fluoro-4-[3-(hydroxymethyl)pyrazol-1-yl]phenyl]amino)-1,6-naphthyridin-2-yl](1-methylpiperidin-4-yl)methanol]: the IC50 at CDK5/p25 is 0.01 to 0.1 µM; on CDK2/CycA2, > 1 µM. The CDK5/CDK2 specificity result at CDK5/p25 (setting [1]) was “++ (greater than 10-fold and less than or equal to 100-fold more active against CDK5 than CDK2)”.
As for `N#Cc1cccc(-c2ccc(Nc3cc4nc(C(O)C5CCN(CCO)CC5)ccc4cn3)c(F)c2)c1` (single isomer, unassigned) [Compound 250, 3′-fluoro-4′-[(2-[hydroxy[1-(2-hydroxyethyl)piperidin-4-yl]methyl]-1,6-naphthyridin-7-yl)amino]-[1,1′-biphenyl]-3-carbonitrile], the IC50 was < 0.01 µM on CDK5/p25 and 0.1 to 1 µM at CDK2/CycA2. Besides, on CDK5/p25 (setting [1]), the CDK5/CDK2 specificity result is “++ (greater than 10-fold and less than or equal to 100-fold more active against CDK5 than CDK2)”.
As for `N#Cc1cccc(-c2ccc(Nc3cc4nc(C(O)C5CCN(CCO)CC5)ccc4cn3)c(F)c2)c1` (single isomer, unassigned) [Compound 251, 3′-fluoro-4′-[(2-[hydroxy[1-(2-hydroxyethyl)piperidin-4-yl]methyl]-1,6-naphthyridin-7-yl)amino]-[1,1′-biphenyl]-3-carbonitrile], the IC50 on CDK5/p25 is 0.01 to 0.1 µM; on CDK2/CycA2 it was > 1 µM. For the same molecule, the CDK5/CDK2 specificity result at CDK5/p25 (setting [1]) was “++ (greater than 10-fold and less than or equal to 100-fold more active against CDK5 than CDK2)”.
Consider `OCCN1CCC(C(O)c2ccc3cnc(Nc4ccc(-n5ccc(CO)n5)cc4F)cc3n2)CC1` (single isomer, unassigned) [Compound 252, 2-(4-[[7-([2-fluoro-4-[3-(hydroxymethyl)pyrazol-1-yl]phenyl]amino)-1,6-naphthyridin-2-yl](hydroxy)methyl]piperidin-1-yl)ethanol], for which the IC50 on CDK5/p25 is < 0.01 µM; at CDK2/CycA2, 0.1 to 1 µM. Moreover, the CDK5/CDK2 specificity entry on CDK5/p25 (setting [1]) was “+++ (greater than 100-fold more active against CDK5 than CDK2)”.
`CN1CCC(C(O)c2ccc3cnc(Nc4ccc(-n5ccc(CO)n5)cc4F)cc3n2)CC1` (single isomer, unassigned) [Compound 254, [7-([2-fluoro-4-[3-(hydroxymethyl)pyrazol-1-yl]phenyl]amino)-1,6-naphthyridin-2-yl](1-methylpiperidin-4-yl)methanol]: the IC50 on CDK5/p25 was < 0.01 µM; on CDK2/CycA2, 0.1 to 1 µM. At CDK5/p25 (setting [1]), the CDK5/CDK2 specificity entry was “+++ (greater than 100-fold more active against CDK5 than CDK2)”.
Turning to `OCCN1CCC(C(O)c2ccc3cnc(Nc4ccc(-n5ccc(CO)n5)cc4F)cc3n2)CC1` (single isomer, unassigned) [Compound 255, 2-(4-[[7-([2-fluoro-4-[3-(hydroxymethyl)pyrazol-1-yl]phenyl]amino)-1,6-naphthyridin-2-yl](hydroxy)methyl]piperidin-1-yl)ethanol], the results for the IC50 at CDK5/p25 and on CDK2/CycA2 were 0.1 to 1 µM and > 1 µM, respectively. The CDK5/CDK2 specificity result at CDK5/p25 (setting [1]) is “++ (greater than 10-fold and less than or equal to 100-fold more active against CDK5 than CDK2)”.
`CN1CCC(C(O)(c2ccc3cnc(Nc4ccc(-n5cccn5)cc4F)cc3n2)C(F)(F)F)CC1` (single isomer, unassigned) [Compound 343, 2,2,2-trifluoro-1-(7-((2-fluoro-4-(1H-pyrazol-1-yl)phenyl)amino)-1,6-naphthyridin-2-yl)-1-(1-methylpiperidin-4-yl)ethan-1-ol]: the IC50 on CDK5/p25 is 0.1 to 1 µM; at CDK2/CycA2, > 1 µM. Besides, at CDK5/p25 (setting [1]), the CDK5/CDK2 specificity entry was “++ (greater than 10-fold and less than or equal to 100-fold more active against CDK5 than CDK2)”.

As a reminder, the IC50 is the midpoint of a concentration-inhibition curve.
